This is an account of results in US6492124B1, “Trance activated signal transduction pathways in osteoclasts” (The Rockefeller University, priority 1999, dated 2002).

Holding throughout (format): cell-based, mouse
One test has as its system JNK. As to the kind of experiment: JNK activation measured by its phosphorylation in osteoclasts and dendritic cells. The note with it: TRANCE, data not shown. Here is the method:
Cell stimulation, cell transfection and in vitro assays. In vitro differentiated mature dendritic cells, macrophages and osteoclasts were washed to remove exogenous growth factors, cultured in media with low serum (0.5% FCS, 6 hours), then stimulated by adding various cytokines in the presence or absence of inhibitors for various times as indicated. After stimulation, the cells were washed in ice-cold PBS, and subjected to Western blot analysis or immunoprecipitation as described below.
For Western blotting, whole-cell extracts (20 μg of total protein), immunoprecipitates or kinase reactions were resolved on SDS-PAGE, electro-blotted to PVDF membranes (Immobilon-P, Millipore) according to standard methods (Maniatis, et al., Molecular Cloning: A Laboratory Manual (Cold Spring Harbor Laboratory, New York) 1989), probed with antibodies according to the manufacturer's protocol, and visualized using an immunodetection system. Stripping was performed by incubating the blots in stripping buffer (62.5 mM Tris pH 6.8, 2% SDS, 100 mM β-mercaptoethanol) for 30 min at 55° C.

The test system of a further test is NF-κB. As to the kind of experiment: NF-κB activation measured by IκB-α phosphorylation/degradation in osteoclasts and dendritic cells (Western blot). The following applies: osteoclasts and dendritic cells, beginning at 10 min of TRANCE, coinciding with peak of IκB-α phosphorylation. Here is the method:
FIG. 1. […] (A) Mature bone marrow-derived osteoclasts were stimulated for the indicated times with recombinant hCD8-TRANCE (TRANCE; 1 μg/ml). Levels of phosphorylated forms of p44/p42 ERK (p44 ERK^P and p42 ERK^P), IκBα (IκB-α^P) and PKB (PKB^P) in whole cell extracts were determined using phospho-peptide-specific antibodies as indicated in the figure. […] (B) as in (A) except the use of mature bone marrow-derived dendritic cells instead of osteoclasts.
FIG. 2. […] (A) Osteoclasts were serum starved and then pretreated for 90 min with LY294002 (10 μM), Herbimycin A (Herb. A; 10 μM), and PP1 (10 μM) inhibitors which are specific for PI3-kinase, PTKs, and Src-family kinases, respectively, were stimulated for indicated times with TRANCE (1 μg/ml). Levels of phosphorylated p44/p42 ERK, PKB, and IκB-α were determined as described in FIG. 1. Cells pretreated with vehicle (DMSO) were used as a negative control. (B) as in (A) except the use of mature bone marrow-derived dendritic cells.
Primary cells and cell lines. […] In brief, bone marrow cells from tibiae and femur of 4-6 week old mice (C57BL/6, Jackson Laboratories) were cultured overnight in media (α-MEM, 10% FCS) in the presence of CSF-1 (5 ng/ml). […] For experiments described in this study, only adherent cells were used after extensive washing. […] After allowing them adhere for 2 hours to a tissue culture dish, contaminating floater cells were washed away and mature dendritic cells were obtained by overnight culture.
Cell stimulation, cell transfection and in vitro assays. In vitro differentiated mature dendritic cells, macrophages and osteoclasts were washed to remove exogenous growth factors, cultured in media with low serum (0.5% FCS, 6 hours), then stimulated by adding various cytokines in the presence or absence of inhibitors for various times as indicated. After stimulation, the cells were washed in ice-cold PBS, and subjected to Western blot analysis or immunoprecipitation as described below. […]
(In general: In western blotting, separated proteins are transferred to a membrane and probed.)

The next test concerns mature osteoclasts. As to the kind of experiment: Osteoclast survival assay (TRAP solution assay). The following applies: 24 hours; TRANCE 5 μg/ml or CSF-1 10 ng/ml.

Experimental for mature osteoclasts: TRAP solution assays were performed and percent survival calculated. The experiment was performed in triplicate and the mean values with positive standard deviations are shown. […] (E) Mature osteoclasts were washed extensively and then cultured for an additional 24 hr in media without (−) or with TRANCE (5 μg/ml; +) in the absence or presence of increasing doses (200 nM and 800 nM) of LY294002. TRAP solution assays were performed and percent survival was as described in Experimental Procedures. The experiment was performed in triplicate and the mean values with positive standard deviations are shown.
Osteoclast survival assays. In vitro differentiated mature osteoclasts were washed 3 times in media then further cultured for 24 hr in media alone (control) or in media with TRANCE (5 μg/ml) or CSF-1 (10 ng/ml) in the presence or absence of LY294002 as indicated.
Specific cell survival (%)=(A405, 24 hr−A405. background)*100/(A405, 0 hr−A405, background)

Regarding “TNF-related activation-induced cytokine [TRANCE]”, the “JNK activation as measured by its phosphorylation” value in the test with JNK is reported as “not detected”. Moreover, the “total cellular IκB-α” value in the test on NF-κB was “decrease”. In addition, in the test on mature osteoclasts, the “cytokine-promoted survival in c-Src−/− osteoclasts compared to wild-type” value is reported as “reduced”.
